Test results as given in US10770169B2, “Method of providing a treatment to a subject based on a dynamic pathway map” (THE REGENTS OF THE UNIVERSITY OF CALIFORNIA, priority 2010, dated 2020).
Where two headings read alike, the source gives them in different places.

System: panel of 55 breast cancer cell lines
Test: Cell growth inhibition assay (Cell Titer Glo, 72 h, 9 doses; GI50, TGI, LC50)
Assay type: cell-based, human
[1] = Homo sapiens, AU565, AU565 cell line, censored GI50 values, read-out: GI50 (converted)
[2] = Homo sapiens, AU565, cell line AU565, read-out: GI50 (converted)
[3] = Homo sapiens, BT-20, BT20 cell line, censored GI50 values, read-out: GI50 (converted)
[4] = Homo sapiens, BT-20, cell line BT20, read-out: GI50 (converted)
[5] = Homo sapiens, BT-474, BT474 cell line, censored GI50 values, read-out: GI50 (converted)
[6] = Homo sapiens, BT-474, cell line BT474, read-out: GI50 (converted)
[7] = Homo sapiens, BT-483, BT483 cell line, censored GI50 values, read-out: GI50 (converted)
[8] = Homo sapiens, BT-483, cell line BT483, read-out: GI50 (converted)
[9] = Homo sapiens, CAMA-1, CAMA1 cell line, censored GI50 values, read-out: GI50 (converted)
[10] = Homo sapiens, CAMA-1, cell line CAMA1, read-out: GI50 (converted)
[11] = Homo sapiens, HCC38, HCC38 cell line, censored GI50 values, read-out: GI50 (converted)
[12] = Homo sapiens, HCC38, cell line HCC38, read-out: GI50 (converted)
[13] = Homo sapiens, HCC70, HCC70 cell line, censored GI50 values, read-out: GI50 (converted)
[14] = Homo sapiens, HCC70, cell line HCC70, read-out: GI50 (converted)
[15] = Homo sapiens, HCC1187, cell line HCC1187, read-out: GI50 (converted)
[16] = Homo sapiens, HCC1428, HCC1428 cell line, censored GI50 values, read-out: GI50 (converted)
[17] = Homo sapiens, HCC1428, cell line HCC1428, read-out: GI50 (converted)
[18] = Homo sapiens, HCC1954, HCC1954 cell line, censored GI50 values, read-out: GI50 (converted)
[19] = Homo sapiens, HCC1954, cell line HCC1954, read-out: GI50 (converted)
[20] = Homo sapiens, HCC2185 cell line, censored GI50 values, read-out: GI50 (converted)
[21] = Homo sapiens, HCC3153 cell line, censored GI50 values, read-out: GI50 (converted)
[22] = Homo sapiens, MCF7, MCF7 cell line, censored GI50 values, read-out: GI50 (converted)
[23] = Homo sapiens, MCF7, cell line MCF7, read-out: GI50 (converted)
[24] = Homo sapiens, MDA-MB-175-VII, MDAMB175VII cell line, censored GI50 values, read-out: GI50 (converted)
[25] = Homo sapiens, MDA-MB-361, MDAMB361 cell line, censored GI50 values, read-out: GI50 (converted)
[26] = Homo sapiens, MDA-MB-453, MDAMB453 cell line, censored GI50 values, read-out: GI50 (converted)
[27] = Homo sapiens, SK-BR-3, SKBR3 cell line, censored GI50 values, read-out: GI50 (converted)
[28] = Homo sapiens, SUM52PE, SUM52PE cell line, censored GI50 values, read-out: GI50 (converted)
[29] = Homo sapiens, SUM149PT, SUM149PT cell line, censored GI50 values, read-out: GI50 (converted)
[30] = Homo sapiens, SUM1315MO2, SUM1315MO2 cell line, censored GI50 values, read-out: GI50 (converted)
[31] = Homo sapiens, SUM-159-PT, SUM159PT cell line, censored GI50 values, read-out: GI50 (converted)
[32] = Homo sapiens, T47D, T47D cell line, censored GI50 values, read-out: GI50 (converted)
[33] = Homo sapiens, UACC-812, UACC812 cell line, censored GI50 values, read-out: GI50 (converted)
[34] = Homo sapiens, ZR-75-1, ZR751 cell line, censored GI50 values, read-out: GI50 (converted)
[35] = Homo sapiens, ZR-75B, ZR75B cell line, censored GI50 values, read-out: GI50 (converted)
[36] = Homo sapiens, cell line HCC2185, read-out: GI50 (converted)
[37] = Homo sapiens, cell line HCC3153, read-out: GI50 (converted)

## Cn1c(=O)n(-c2ccc(C(C)(C)C#N)cc2)c2c3cc(-c4cnc5ccccc5c4)ccc3ncc21 [BEZ235]
[1]
  GI50: 257 nM
[2]
  GI50: 257 nM
[3]
  GI50: 3800 nM
[4]
  GI50: 3800 nM
[5]
  GI50: 347 nM
[6]
  GI50: 347 nM
[7]
  GI50: 11200 nM
[8]
  GI50: 11200 nM
[9]
  GI50: 16600 nM
[10]
  GI50: 16600 nM
[11]
  GI50: 490 nM
[12]
  GI50: 490 nM
[13]
  GI50: 158 nM
[14]
  GI50: 158 nM
[15]
  GI50: 33100 nM
[16]
  GI50: 17000 nM
[17]
  GI50: 17000 nM
[18]
  GI50: 52.5 nM
[19]
  GI50: 52.5 nM
[20]
  GI50: 263 nM
[21]
  GI50: 646 nM
[22]
  GI50: 589 nM
[23]
  GI50: 589 nM
Homo sapiens, MDA-MB-134-VI, MDAMB134VI cell line, censored GI50 values, read-out: GI50 (converted)
  GI50: 1000 nM
[24]
  GI50: 1150 nM
[25]
  GI50: 813 nM
Homo sapiens, MDA-MB-361, cell line MDAMB361, read-out: GI50 (converted)
  GI50: 813 nM
Homo sapiens, MDA-MB-415, MDAMB415 cell line, censored GI50 values, read-out: GI50 (converted)
  GI50: 263 nM
Homo sapiens, MDA-MB-415, cell line MDAMB415, read-out: GI50 (converted)
  GI50: 263 nM
[26]
  GI50: 132 nM
Homo sapiens, MDA-MB-453, cell line MDAMB453, read-out: GI50 (converted)
  GI50: 132 nM
Homo sapiens, MDA-MB-468, cell line MDAMB468, read-out: GI50 (converted)
  GI50: 33100 nM
[27]
  GI50: 589 nM
Homo sapiens, SK-BR-3, cell line SKBR3, read-out: GI50 (converted)
  GI50: 589 nM
[28]
  GI50: 17000 nM
Homo sapiens, SUM52PE, cell line SUM52PE, read-out: GI50 (converted)
  GI50: 17000 nM
[29]
  GI50: 269 nM
Homo sapiens, SUM149PT, cell line SUM149PT, read-out: GI50 (converted)
  GI50: 269 nM
Homo sapiens, SUM185PE, SUM185PE cell line, censored GI50 values, read-out: GI50 (converted)
  GI50: 15100 nM
Homo sapiens, SUM185PE, cell line SUM185PE, read-out: GI50 (converted)
  GI50: 15100 nM
[30]
  GI50: 224 nM
[31]
  GI50: 36.3 nM
Homo sapiens, SUM-159-PT, cell line SUM159PT, read-out: GI50 (converted)
  GI50: 36.3 nM
[32]
  GI50: 282 nM
Homo sapiens, T47D, cell line T47D, read-out: GI50 (converted)
  GI50: 282 nM
[33]
  GI50: 16600 nM
Homo sapiens, UACC-812, cell line UACC812, read-out: GI50 (converted)
  GI50: 16600 nM
[34]
  GI50: 16600 nM
Homo sapiens, ZR-75-1, cell line ZR751, read-out: GI50 (converted)
  GI50: 16600 nM
[35]
  GI50: 141 nM
Homo sapiens, ZR-75B, cell line ZR75B, read-out: GI50 (converted)
  GI50: 141 nM
[36]
  GI50: 263 nM
[37]
  GI50: 646 nM
Homo sapiens, cell line MDAMB134V, read-out: GI50 (converted)
  GI50: 1000 nM
Homo sapiens, cell line MDAMB175V, read-out: GI50 (converted)
  GI50: 1150 nM
Homo sapiens, cell line SUM1315MO, read-out: GI50 (converted)
  GI50: 224 nM

## COc1cc(Nc2c(C#N)cnc3cc(OCCCN4CCN(C)CC4)c(OC)cc23)c(Cl)cc1Cl [Bosutinib]
Homo sapiens, 600MPE cell line, censored GI50 values, read-out: GI50 (converted)
  GI50: 8910 nM
[1]
  GI50: 2140 nM
[2]
  GI50: 2140 nM
[3]
  GI50: 1380 nM
[4]
  GI50: 1380 nM
[5]
  GI50: 724 nM
[6]
  GI50: 724 nM
[7]
  GI50: 3550 nM
[8]
  GI50: 3550 nM
[9]
  GI50: 3240 nM
[10]
  GI50: 3240 nM
[11]
  GI50: 891 nM
[12]
  GI50: 891 nM
[13]
  GI50: 891 nM
[14]
  GI50: 891 nM
Homo sapiens, HCC1143, HCC1143 cell line, censored GI50 values, read-out: GI50 (converted)
  GI50: 4900 nM
Homo sapiens, HCC1143, cell line HCC1143, read-out: GI50 (converted)
  GI50: 4900 nM
Homo sapiens, HCC1187, HCC1187 cell line, censored GI50 values, read-out: GI50 (converted)
  GI50: 3160 nM
[15]
  GI50: 3160 nM
Homo sapiens, HCC1419, HCC1419 cell line, censored GI50 values, read-out: GI50 (converted)
  GI50: 759 nM
Homo sapiens, HCC1419, cell line HCC1419, read-out: GI50 (converted)
  GI50: 759 nM
[16]
  GI50: 3890 nM
[17]
  GI50: 3890 nM
Homo sapiens, HCC1500, HCC1500 cell line, censored GI50 values, read-out: GI50 (converted)
  GI50: 2570 nM
Homo sapiens, HCC1500, cell line HCC1500, read-out: GI50 (converted)
  GI50: 2570 nM
Homo sapiens, HCC1806, HCC1806 cell line, censored GI50 values, read-out: GI50 (converted)
  GI50: 2090 nM
Homo sapiens, HCC1806, cell line HCC1806, read-out: GI50 (converted)
  GI50: 2090 nM
Homo sapiens, HCC1937, HCC1937 cell line, censored GI50 values, read-out: GI50 (converted)
  GI50: 1450 nM
Homo sapiens, HCC1937, cell line HCC1937, read-out: GI50 (converted)
  GI50: 1450 nM
[18]
  GI50: 1170 nM
[19]
  GI50: 1170 nM
[20]
  GI50: 5010 nM
[21]
  GI50: 3800 nM
Homo sapiens, LY2 cell line, censored GI50 values, read-out: GI50 (converted)
  GI50: 2450 nM
[22]
  GI50: 2570 nM
[23]
  GI50: 2570 nM
[24]
  GI50: 1070 nM
[25]
  GI50: 1510 nM
Homo sapiens, MDA-MB-436, MDAMB436 cell line, censored GI50 values, read-out: GI50 (converted)
  GI50: 5010 nM
[26]
  GI50: 2340 nM
Homo sapiens, MDA-MB-468, MDAMB468 cell line, censored GI50 values, read-out: GI50 (converted)
  GI50: 2570 nM
[27]
  GI50: 3890 nM
[28]
  GI50: 1450 nM
[29]
  GI50: 759 nM
[30]
  GI50: 871 nM
[31]
  GI50: 1380 nM
[32]
  GI50: 5620 nM
[33]
  GI50: 2750 nM
[34]
  GI50: 14100 nM
[35]
  GI50: 7080 nM
Homo sapiens, cell line 600MPE, read-out: GI50 (converted)
  GI50: 8910 nM
[36]
  GI50: 5010 nM
[37]
  GI50: 3800 nM
Homo sapiens, cell line LY2, read-out: GI50 (converted)
  GI50: 2450 nM

## CCc1c2c(nc3ccc(OC(=O)N4CCC(N5CCCCC5)CC4)cc13)-c1cc3c(c(=O)n1C2)COC(=O)[C@]3(O)CC [CPT-11]
CAMA1 cell line, censored GI50 values, value is the negative log10 of mol/L
  GI50: 4.84
MDAMB157 cell line, censored GI50 values, value is the negative log10 of mol/L
  GI50: 4.80
Cell line CAMA1, value is the negative log10 of mol/L
  GI50: 4.84
Cell line MDAMB157, value is the negative log10 of mol/L
  GI50: 4.80
